Measurements from PMC8151276, “An Integrated Approach toward NanoBRET Tracers for Analysis of GPCR Ligand Engagement” (Molecules, 2021).

Columns and labels:
Type in all cases: binding
ADORA3 = molecular target: T1, ADORA3 (Homo sapiens, UniProt P0DMS8); assay: NanoBRET screen HiBiT-ADORA3 in HEK293
T1 construct: purchased Promega (in-house HiBiT-GPCR construct library, NanoBRET)
T1 sequence (P0DMS8 1-318): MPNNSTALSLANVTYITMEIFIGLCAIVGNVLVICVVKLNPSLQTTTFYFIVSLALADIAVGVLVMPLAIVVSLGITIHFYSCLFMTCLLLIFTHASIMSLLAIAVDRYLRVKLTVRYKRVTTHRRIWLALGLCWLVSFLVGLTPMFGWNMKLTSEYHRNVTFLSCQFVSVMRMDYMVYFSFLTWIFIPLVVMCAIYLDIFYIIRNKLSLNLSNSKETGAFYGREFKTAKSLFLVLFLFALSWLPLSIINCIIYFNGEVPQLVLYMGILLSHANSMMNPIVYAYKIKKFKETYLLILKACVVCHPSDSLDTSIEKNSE
Experimental: (§1) Each tracer candidate was screened across the entire library of HiBiT-GPCR constructs using NanoBRET as the detection modality. As depicted in Figure 4A, the specificity of interactions was evaluated through decrease in BRET due to competitive displacement of a bound tracer by excess parental compound. Each tracer was analyzed for binding to each HiBiT-GPCR fusion in the absence and in the presence of competing parental compound. Briefly, HEK293 cells were transfected with HiBiT-GPCR constructs diluted into promoterless DNA to reduce expression and maximize translocation to the cell surface. Each tracer candidate was then screened at concentrations of 1 μM and 0.1 μM across cells expressing these fusions. Cells were treated for 1.5 h with tracer either alone or in the presence of 20 μM competing parental compound (i.e., control). BRET was measured upon addition of purified LgBiT and subsequent complementation with HiBiT genetically fused to a GPCR. The specificity of interactions was assessed through a decrease in BRET signal due to competitive displacement of the bound tracer. To further gauge the robustness of these interactions, the fold response over the control (i.e., BRETtracer/BRETcontrol) was calculated. We chose a 1.5-fold response, which translates to ≥7-fold signal over noise as the minimal threshold required to score an interaction as positive. […]. Below we highlight the screening results obtained for our exemplary fluorescent tracers based on Clozapine, Amitriptyline and AZD1283.
(§2) HiBiT-GPCR DNA constructs were diluted in 10 mM Tris pH 8 to a final concentration of 0.01 μg/μL, arrayed in 96-well plates and stored at −20 °C. For transfection, HEK293 cells were suspended in Opti-MEM (without phenol red) supplemented with 2% fetal bovine serum (Seradigm) and 100 units/mL penicillin–streptomycin (Gibco) at a final concentration of 220,000 cells/mL and dispensed into white 96-well plates at 90 μL/well. Subsequent transfections and screens were carried using an Agilent Bravo Automated Liquid Handling Platform. First, the 96-well HiBiT DNA arrays were diluted 25-fold in Opti-MEM (without serum or phenol red) to a final concentration of 0.0004 μg/μL and 20 μL of the diluted DNAs were transferred into new 96-well plates. Next, promoterless carrier DNA (1 μg/μL) was diluted 25-fold (0.04 μg/μL) and then dispensed into the diluted arrays at 20 μL/well. Following brief mixing, Viafect transfection reagent (Promega) diluted 16-fold into Opti-MEM was dispensed into the plates at 40 μL/well. After mixing by pipetting, plates were incubated for 10 min on the pipetting station deck. The DNA-transfection reagent complexes were then added to plates containing cells. To facilitate the screen, 10 μL of DNA-transfection reagent complexes were added in duplicates to the top 4 and bottom 4 rows, resulting in two identical 48-well arrays per plate. Plates with transfected cells were incubated for 18–20 h at 37 °C/5% CO2. A screen of each tracer across the entire library using two different concentrations requires duplicate plates of transfected cells. Depending on the number of tracers being screened, transfections can be scaled up using the same ratios. The next day, for each tracer, four 20× screening solutions in tracer dilution buffer (Promega) were prepared: two duplicates at final concentration of 20 μM and two duplicates at a final concentration of 2 μM. A competing unmodified compound was added to one of each duplicate at a final concentration of 400 μM. The four resulting solutions were diluted 4-fold in Opti-MEM without serum or phenol red to generate 5× solutions (5 µM and 0.5 µM tracer +/− 100 μM competing compound). To screen the library, a BioTek MultiFlo FX liquid dispenser was used to dispense 22.5 µL of tracer solution to the top 4 rows and 22.5 µL tracer + competing compound solution to the 4 bottom rows. Plates were briefly mixed on an orbital shaker and incubated for 1.5 h at room temperature. […]

C5AR1 = molecular target: T2, C5AR1 (Homo sapiens, UniProt P21730); assay: NanoBRET screen HiBiT-C5AR1 in HEK293
T2 construct: purchased Promega (in-house HiBiT-GPCR construct library, NanoBRET)
T2 sequence (P21730 1-350): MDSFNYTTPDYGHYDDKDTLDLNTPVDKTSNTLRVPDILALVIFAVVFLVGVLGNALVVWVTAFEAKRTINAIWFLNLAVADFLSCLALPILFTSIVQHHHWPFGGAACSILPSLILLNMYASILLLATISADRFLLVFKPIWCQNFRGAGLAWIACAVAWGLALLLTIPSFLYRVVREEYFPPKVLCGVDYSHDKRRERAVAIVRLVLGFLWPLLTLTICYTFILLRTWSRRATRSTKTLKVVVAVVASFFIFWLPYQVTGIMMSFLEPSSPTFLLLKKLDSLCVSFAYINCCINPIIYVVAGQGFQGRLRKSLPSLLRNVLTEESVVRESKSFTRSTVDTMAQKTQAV
Experimental: as §1, §2

CHRM3 = molecular target: T3, CHRM3 (Homo sapiens, UniProt P20309); assay: NanoBRET screen HiBiT-CHRM3 in HEK293
T3 construct: purchased Promega (in-house HiBiT-GPCR construct library, NanoBRET)

VIPR1 = molecular target: T4, VIPR1 (Homo sapiens, UniProt P32241); assay: NanoBRET screen HiBiT-VIPR1 in HEK293
T4 construct: purchased Promega (in-house HiBiT-GPCR construct library, NanoBRET)
T4 sequence (P32241 31-457): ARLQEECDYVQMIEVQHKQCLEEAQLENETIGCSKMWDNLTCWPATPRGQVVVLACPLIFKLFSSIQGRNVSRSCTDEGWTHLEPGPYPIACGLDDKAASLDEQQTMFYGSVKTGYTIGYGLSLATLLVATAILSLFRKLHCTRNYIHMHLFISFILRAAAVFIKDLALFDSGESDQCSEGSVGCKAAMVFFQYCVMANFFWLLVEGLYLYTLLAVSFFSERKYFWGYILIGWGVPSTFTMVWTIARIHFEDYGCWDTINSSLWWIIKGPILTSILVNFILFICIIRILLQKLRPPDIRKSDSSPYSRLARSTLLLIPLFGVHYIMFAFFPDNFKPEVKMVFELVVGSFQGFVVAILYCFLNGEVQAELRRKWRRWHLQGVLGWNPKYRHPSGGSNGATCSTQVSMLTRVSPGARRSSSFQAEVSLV
Experimental: as §1, §2

NPFFR2 = molecular target: T5, NPFFR2 (Homo sapiens, UniProt Q9Y5X5); assay: NanoBRET screen HiBiT-NPFFR2 in HEK293
T5 construct: purchased Promega (in-house HiBiT-GPCR construct library, NanoBRET)
Experimental: as §1, §2

GRM2 = molecular target: T6, GRM2 (Homo sapiens, UniProt Q14416); assay: NanoBRET screen HiBiT-GRM2 in HEK293
T6 construct: purchased Promega (in-house HiBiT-GPCR construct library, NanoBRET)
Experimental: as §1, §2

T5 sequence (Q9Y5X5 whole entry): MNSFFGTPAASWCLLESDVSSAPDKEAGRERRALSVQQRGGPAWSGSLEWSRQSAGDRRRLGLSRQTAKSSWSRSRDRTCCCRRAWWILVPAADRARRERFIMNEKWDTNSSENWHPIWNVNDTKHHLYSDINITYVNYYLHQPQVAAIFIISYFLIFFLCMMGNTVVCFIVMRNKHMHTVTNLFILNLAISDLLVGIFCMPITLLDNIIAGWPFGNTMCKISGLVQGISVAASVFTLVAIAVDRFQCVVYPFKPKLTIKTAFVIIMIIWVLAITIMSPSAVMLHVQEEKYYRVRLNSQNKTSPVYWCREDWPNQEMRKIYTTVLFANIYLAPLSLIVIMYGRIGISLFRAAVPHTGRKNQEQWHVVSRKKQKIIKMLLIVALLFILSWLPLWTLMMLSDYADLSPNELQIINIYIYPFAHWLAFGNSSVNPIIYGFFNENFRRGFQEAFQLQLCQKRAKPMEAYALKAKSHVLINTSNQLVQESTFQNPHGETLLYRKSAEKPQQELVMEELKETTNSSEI
T6 sequence (Q14416 19-872): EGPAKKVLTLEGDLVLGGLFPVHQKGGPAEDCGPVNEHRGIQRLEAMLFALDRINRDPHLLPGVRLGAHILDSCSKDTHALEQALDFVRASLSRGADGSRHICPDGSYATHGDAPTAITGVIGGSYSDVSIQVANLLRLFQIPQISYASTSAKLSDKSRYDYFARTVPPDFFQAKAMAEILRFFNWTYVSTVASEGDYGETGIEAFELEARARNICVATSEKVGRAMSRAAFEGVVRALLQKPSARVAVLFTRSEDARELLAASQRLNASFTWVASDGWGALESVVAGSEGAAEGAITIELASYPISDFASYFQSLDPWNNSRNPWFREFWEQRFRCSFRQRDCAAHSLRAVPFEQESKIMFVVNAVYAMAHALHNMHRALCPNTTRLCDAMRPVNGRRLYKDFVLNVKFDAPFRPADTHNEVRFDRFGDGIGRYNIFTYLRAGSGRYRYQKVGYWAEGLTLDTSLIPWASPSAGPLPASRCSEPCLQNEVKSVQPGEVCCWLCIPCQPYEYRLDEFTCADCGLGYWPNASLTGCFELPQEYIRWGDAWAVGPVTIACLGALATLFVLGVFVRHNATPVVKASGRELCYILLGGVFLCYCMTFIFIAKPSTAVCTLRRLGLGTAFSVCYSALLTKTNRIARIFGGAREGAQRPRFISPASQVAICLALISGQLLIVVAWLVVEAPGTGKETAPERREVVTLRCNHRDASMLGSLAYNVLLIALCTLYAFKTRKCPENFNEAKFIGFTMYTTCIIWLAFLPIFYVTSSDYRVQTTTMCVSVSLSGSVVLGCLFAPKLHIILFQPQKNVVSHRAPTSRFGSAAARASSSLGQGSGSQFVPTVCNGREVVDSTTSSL
T3 sequence (P20309 whole entry): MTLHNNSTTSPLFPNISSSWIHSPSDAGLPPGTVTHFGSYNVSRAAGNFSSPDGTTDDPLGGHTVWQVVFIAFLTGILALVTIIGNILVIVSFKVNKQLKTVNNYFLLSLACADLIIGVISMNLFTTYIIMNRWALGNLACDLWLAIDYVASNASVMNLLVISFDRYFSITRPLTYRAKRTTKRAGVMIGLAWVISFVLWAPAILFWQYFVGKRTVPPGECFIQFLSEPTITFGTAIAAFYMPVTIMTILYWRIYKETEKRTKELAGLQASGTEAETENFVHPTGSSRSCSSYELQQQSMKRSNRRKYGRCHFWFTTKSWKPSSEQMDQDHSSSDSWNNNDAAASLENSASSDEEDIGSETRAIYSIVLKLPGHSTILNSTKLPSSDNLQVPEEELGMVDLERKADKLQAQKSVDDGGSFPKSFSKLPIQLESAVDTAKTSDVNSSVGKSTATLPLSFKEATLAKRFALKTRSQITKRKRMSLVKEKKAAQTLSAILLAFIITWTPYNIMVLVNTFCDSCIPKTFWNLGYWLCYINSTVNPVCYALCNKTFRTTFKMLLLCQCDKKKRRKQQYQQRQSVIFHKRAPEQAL

| NanoBRET Fold Response (ADORA3; 0.1μM tracer) | NanoBRET Fold Response (ADORA3; 1μM tracer) | NanoBRET Fold Response (C5AR1; 0.1μM tracer) | NanoBRET Fold Response (C5AR1; 1μM tracer) | NanoBRET Fold Response (CHRM3; 0.1μM tracer) | NanoBRET Fold Response (CHRM3; 1μM tracer) | NanoBRET Fold Response (VIPR1; 0.1μM tracer) | NanoBRET Fold Response (VIPR1; 1μM tracer) | NanoBRET Fold Response (NPFFR2; 0.1μM tracer) | NanoBRET Fold Response (NPFFR2; 1μM tracer) | NanoBRET Fold Response (GRM2; 0.1μM tracer) | NanoBRET Fold Response (GRM2; 1μM tracer) | SMILES | other results |
| --- | --- | --- | --- | --- | --- | --- | --- | --- | --- | --- | --- | --- | --- |
| – | – | – | – | – | – | – | – | – | – | – | – | CCOC(=O)c1cc(C#N)c(N2CCC(C(=O)NS(=O)(=O)Cc3ccccc3/C=C/C(=O)NCCNC(=O)CCc3ccc4n3[B-](F)(F)[N+]3=C(c5ccc[nH]5)C=CC3=C4)CC2)nc1C [AZD1283-1-NB590] | NanoBRET Fold Response (ADORA3; ADORA3, 0.1μM): 1.11; NanoBRET Fold Response (ADORA3; ADORA3, 1μM): 1.09; NanoBRET Fold Response (C5AR1; C5AR1, 0.1μM): 1.07; NanoBRET Fold Response (C5AR1; C5AR1, 1μM): 1.07; NanoBRET Fold Response (CHRM3; CHRM3, 0.1μM): 1.07; NanoBRET Fold Response (CHRM3; CHRM3, 1μM): 1.09; NanoBRET Fold Response (VIPR1; VIPR1, 0.1μM): 0.99; NanoBRET Fold Response (VIPR1; VIPR1, 1μM): 1.02; NanoBRET Fold Response (NPFFR2; NPFFR2, 0.1μM): 1.01; NanoBRET Fold Response (NPFFR2; NPFFR2, 1μM): 1.15; NanoBRET Fold Response (GRM2; GRM2, 0.1μM): 1.00; NanoBRET Fold Response (GRM2; GRM2, 1μM): 0.43 |
| – | – | – | – | – | – | – | – | – | – | – | – | N#CN=C(NCCCOc1cccc(CN2CCCCC2)c1)NCCNC(=O)CCOCCOCCOCCOCCNC(=O)CCc1ccc2n1[B-](F)(F)[N+]1=C(c3ccc[nH]3)C=CC1=C2 [Aminopotentidine-2-NB590] | NanoBRET Fold Response (ADORA3; ADORA3, tracer 0.1μM): 1.16; NanoBRET Fold Response (ADORA3; ADORA3, tracer 1μM): 1.03; NanoBRET Fold Response (C5AR1; C5AR1, tracer 0.1μM): 0.99; NanoBRET Fold Response (C5AR1; C5AR1, tracer 1μM): 0.98; NanoBRET Fold Response (CHRM3; CHRM3, tracer 0.1μM): 0.99; NanoBRET Fold Response (CHRM3; CHRM3, tracer 1μM): 1.04; NanoBRET Fold Response (VIPR1; VIPR1, tracer 0.1μM): 1.02; NanoBRET Fold Response (VIPR1; VIPR1, tracer 1μM): 1.00; NanoBRET Fold Response (NPFFR2; NPFFR2, tracer 0.1μM): 0.98; NanoBRET Fold Response (NPFFR2; NPFFR2, tracer 1μM): 1.02; NanoBRET Fold Response (GRM2; GRM2, tracer 0.1μM): 1.05; NanoBRET Fold Response (GRM2; GRM2, tracer 1μM): 0.99 |
| 1.01 | 1.02 | 0.90 | 0.94 | 1.05 | 0.96 | 0.99 | 1.21 | 1.16 | 0.97 | 1.19 | 1.00 | COc1ccc2c(n1)c(CCNC(C)=O)cn2CCNC(=O)CCc1ccc2n1[B-](F)(F)[N+]1=C(c3ccc[nH]3)C=CC1=C2 [Azamelatonin-1-NB590] | – |
| 0.91 | 0.97 | 0.99 | 0.98 | 0.95 | 1.01 | 0.89 | 0.81 | 0.91 | 1.06 | 1.11 | 0.95 | COc1ccc2[nH]c(-c3ccc(CNC(=O)CCOCCOCCOCCOCCNC(=O)CCc4ccc5n4[B-](F)(F)[N+]4=C(c6ccc[nH]6)C=CC4=C5)cc3)c(CCNC(C)=O)c2n1 [AzomelatoninICO9-2-NB590] | – |
